Data published in ChEMBL document CHEMBL3826963, “Pharmacological protection of mitochondrial function mitigates acute limb ischemia/reperfusion injury” (Bioorg Med Chem Lett, 2016).
Activity calls are given as the source filed them. The calls are words filed in the database; no cut-off is given here. Where a SMILES comes first, the peptide text is derived from it.

What was measured:
Mus musculus = test: Anti-inflammatory activity in ICR mouse assessed as inhibition of xylene-induced ear edema at 1 umol/kg, po pretreated for 30 mins followed by xylene administration measured after 2 hrs relative to control; type: functional
Rattus norvegicus [1] = test: Antithrombotic activity in Wistar rat model of thread-induced arterial thrombosis assessed as thrombus weight at 5 umol/kg measured after 2 to 3 hrs (reference value: 42.1 +/- 3.2 mg)
PC-12 [2] = test: Antioxidant activity in rat PC12 cells assessed as scavenging of H2O2/Fe2+ ion-induced hydroxyl radical by measuring increase in cell survival at 12.5 to 200 uM preincubated for 1 hr followed by H2O2/Fe2+ ion addition measured after 1 hr by MTT assay; type: functional, cell-based
PC-12 [3] = test: Antioxidant activity in rat PC12 cells assessed as scavenging of SNAP-induced NO radical by measuring increase in cell survival at 12.5 to 200 uM preincubated for 1 hr followed by SNAP addition measured after 2 hrs by MTT assay; type: functional, cell-based
PC-12 [4] = test: Antioxidant activity in rat PC12 cells assessed as scavenging of hypoxanthine/xanthine oxidase-induced O2 radical by measuring increase in cell survival at 12.5 to 200 uM preincubated for 1 hr followed by hypoxanthine/xanthine oxidase addition by MTT assay; type: functional, cell-based
Rattus norvegicus [5] = test: (§1) Anti-inflammatory activity in Wistar rat model of tourniquet-induced limb ischemia/reperfusion injury assessed as serum TNF-alpha level at 20 mg/kg, ip dosed 15 mins before and after 3 hrs of ischemia followed by 20 mg/kg, ip compound treatment for 1 hr before and after 4 hrs of reperfusion by ELISA (reference value: 185.1 +/- 23.5 pg/ml); type: functional
Rattus norvegicus [6] = test: as §1, with “IL-6” for “TNF-alpha”, “580.3” for “185.1”, “95.2” for “23.5”; type: functional
Rattus norvegicus [7] = test: (§2) Protection against Wistar rat model of tourniquet-induced limb ischemia/reperfusion injury-induced oxidative stress assessed as skeletal muscle GSH level at 20 mg/kg, ip dosed 15 mins before and after 3 hrs of ischemia followed by 20 mg/kg, ip compound treatment for 1 hr before and after 4 hrs of reperfusion (reference value: 0.82 +/- 0.19 umol/g); type: functional
Rattus norvegicus [8] = test: as §2, with “SOD activity per mg protein” for “GSH level”, “0.41” for “0.82”, “0.09 U)” for “0.19 umol/g)”; type: functional
Rattus norvegicus [9] = test: as §2, with “CAT activity per mg protein” for “GSH level”, “25.64” for “0.82”, “5.29 U)” for “0.19 umol/g)”; type: functional
Rattus norvegicus [10] = test: as §2, with “MDA” for “GSH”, “45.78” for “0.82”, “4.33 nmol/g)” for “0.19 umol/g)”; type: functional

With `CC(=O)Oc1ccccc1C(=O)O` [ASPIRIN] the inhibition in vivo at 1 µmol/kg (Mus musculus) was 50.3% and the Activity (Rattus norvegicus [1]) was 28.5 mg.
In the case of `C[C@H](NC(=O)[C@@H]1CCCN1)C(=O)N[C@@H](CCCCN)C(=O)O` (H-Pro-Ala-Lys-OH), the Activity (Rattus norvegicus [1]) was 32.8 mg.
In the case of `COc1cc(/C=C/C(=O)CC(=O)/C=C/c2ccc(OCC(=O)N[C@@H](CCCCN)C(=O)O)c(OC)c2)ccc1O`, the inhibition in vivo at 1 µmol/kg (Mus musculus) was 41.1% and the Activity (Rattus norvegicus [1]) was 34.5 mg.
In the case of `COC(=O)COc1ccc(/C=C/C(=O)CC(=O)/C=C/c2ccc(O)c(OC)c2)cc1OC`, the inhibition in vivo at 1 µmol/kg (Mus musculus) was 23.3%, the Activity (PC-12 [2]) was “Active” and the Activity (PC-12 [3]) was “inactive”. The Activity (PC-12 [4]) was “inactive”, the Activity (Rattus norvegicus [5]) was 155.4 pg/mL and the Activity (Rattus norvegicus [6]) was 450.8 pg/mL. It also gave an Activity (Rattus norvegicus [7]) of 1.41 µmol/g, an Activity (Rattus norvegicus [8]) of 0.64 U/mg and an Activity (Rattus norvegicus [9]) of 44.6 U/mg. It also gave an Activity (Rattus norvegicus [10]) of 32.47 nmol/g and an Activity (Rattus norvegicus [1]) of 39.7 mg.
Compound `COc1ccc(/C=C/C(=O)CC(=O)/C=C/c2ccc(OCC(=O)N[C@@H](CCCCN)C(=O)O)c(OC)c2)cc1OC` has an inhibition in vivo at 1 µmol/kg (Mus musculus) of 39.3% and an Activity (Rattus norvegicus [1]) of 38.3 mg.
For `COC(=O)COc1ccc(/C=C/C(=O)CC(=O)/C=C/c2ccc(OC)c(OC)c2)cc1OC`, the inhibition in vivo at 1 µmol/kg (Mus musculus) was 25.1%, the Activity (PC-12 [2]) was “Active” and the Activity (PC-12 [3]) was “inactive”. For the same compound, the Activity (PC-12 [4]) was “inactive”, the Activity (Rattus norvegicus [5]) was 160.7 pg/mL and the Activity (Rattus norvegicus [6]) was 472.5 pg/mL. The Activity (Rattus norvegicus [7]) was 1.55 µmol/g, the Activity (Rattus norvegicus [8]) was 0.58 U/mg and the Activity (Rattus norvegicus [9]) was 42.4 U/mg. For the same compound, the Activity (Rattus norvegicus [10]) was 30.12 nmol/g and the Activity (Rattus norvegicus [1]) was 40.1 mg.
